Patent publication US10987346B2, “Iloperidone for the treatment of schizophrenia” (Vanda Pharmaceuticals, Inc., priority 2015, dated 2021)

How the values were obtained:
[1] = test system: patients with schizophrenia; experiment: Randomized withdrawal relapse-prevention study (NCT01291511): efficacy assessments; assay type: in vivo, human; conditions: for Avg Time to Relapse or Impending Relapse: full analysis population; for Hazard Ratio (95% CI): favoring iloperidone over placebo
Protocol: Study subjects were adults with schizophrenia who were first treated with open-label iloperidone 12 mg/day given as 6 mg BID and then stabilized for a further 14-24 weeks with a flexible-dose iloperidone regimen as per investigator judgment ranging between 8-24 mg/day daily dose (given BID). Subjects who remained clinically stable for at least 12 weeks entered the relapse prevention phase and were randomized 1:1 to either continue on the same flexible dose regimen of iloperidone or to withdraw from iloperidone to matched placebo in a double-blinded fashion. Subjects were followed for up to 26 weeks and were withdrawn upon showing signs of relapse or impending relapse. A pre-defined unblinded interim analysis (IA) was conducted utilizing a group sequential testing procedure with an O'Brien-Fleming stopping boundary after 68 relapse or impending relapse events were observed. The primary outcome was time-to-relapse or impending relapse with event criteria defined in the protocol prior to first subject enrollment.
A randomized, double-blind, placebo-controlled, parallel-group study (ClinicalTrials.gov identifier NCT01291511) was performed at 27 centers in the United States, 15 in India and 24 in Ukraine.
The study consisted of five phases, the first four of which are shown in FIG. 1: screening phase, open-label titration phase, open-label stabilization phase, double-blind randomized withdrawal phase, and open-label extension phase (not shown).
In the Open-Label Titration Phase, patients received iloperidone 1, 2, 4, 6, 6, 6, 6 mg twice daily on Days 1 through 7, respectively. All previous antipsychotic treatments were discontinued prior to, or within 4 days, after the first day of iloperidone treatment. If the Investigator felt that it was necessary to titrate down the previous antipsychotic medication, the dose reduction was to be done within the first 4 days initiating iloperidone treatment (i.e., previous medication fully discontinued by Day 4).
In the Open-Label Stabilization Phase, patients received flexible doses of iloperidone 4 to 12 mg twice daily (8 to 24 mg/day). Patients needed to be clinically stable for a minimum of 12 weeks prior to randomization.
In the Double-Blind Randomized Withdrawal Phase, patients were randomized to receive iloperidone or placebo. Patients randomized to iloperidone initially took the dose level being received during the last 4 weeks of the Stabilization Phase and then treated with flexible doses of iloperidone 4 to 12 mg twice daily (8 to 24 mg/day).
Patients needed to be clinically stable throughout the last 12 weeks of the Stabilization Phase to be eligible for randomization. “Clinically stable” adult outpatients were defined as: meeting DSM-IV criteria for schizophrenia, and remaining stable following 12 weeks of open-label treatment with flexible doses of iloperidone, being on an established dose of iloperidone that remained unchanged due to efficacy during the 4 weeks prior to randomization; PANSS total score ≤70 and CGI-S score ≤4; Score of ≤4 on each of the following individual PANSS items: P1 (delusion), P2 (conceptual disorganization), P3 (hallucinatory behavior), P6 (suspiciousness/persecution), P7 (hostility), or G8 (uncooperativeness); and no hospitalization or increase in level of care to treat exacerbations.
The primary efficacy endpoint was time to relapse or impending relapse. Relapse or impending relapse during the double-blind relapse prevention phase was defined as any of the following: hospitalization (voluntary or involuntary) due to worsening of schizophrenia; an increase (worsening) of the PANSS total score of ≥30% from randomization, confirmed at a second visit conducted with 1 to 7 days later; patient had clinically significant suicidal, homicidal, or aggressive behavior; CGI-I score of ≥6 (much worse) or 7 (very much worse) after randomization; or an increase in iloperidone dose or in need of additional antipsychotic treatment. […]

[2] = test system: patients with schizophrenia; experiment: Randomized withdrawal relapse-prevention study (NCT01291511): safety assessments; assay type: in vivo, human; conditions: for Patients with at least 1 TEAE: Full Analysis Population; for Primary Reason for Discontinuation: Abnormal Laboratory Value(s) / Primary Reason for Discontinuation: Abnormal Test Procedure Result(s) / Primary Reason for Discontinuation: Adverse Event(s) / Primary Reason for Discontinuation: Death: interim analysis population, % of discontinued
Source text: Safety assessments included collection of adverse events (AEs), clinical laboratory evaluations, 12-lead electrocardiograms (ECGs), body weight, vital signs, Columbia Suicide Severity Rating Scale (C-SSRS), and movement disorder rating scales (Barnes Akathisia Scale [BAS], Abnormal Involuntary Movement Scale [AIMS], and Simpson Angus Scale [SAS]).
The safety population was defined for each study phase (Titration and Stabilization or Double-Blind Relapse Prevention). For each phase, the safety population included all patients who received at least 1 dose of study medication during the corresponding phase. Descriptive statistics by study phase for each of the safety assessments were calculated.

[3] = Double-Blind Relapse Prevention Phase, N = 151
[4] = Relapse Prevention Phase, end of the study
[5] = Titration and Stabilization Phase
[6] = Titration/Stabilization Phase, N = 629
[7] = end of Titration and Stabilization Phase

For `COc1cc(C(C)=O)ccc1OCCCN1CCC(c2noc3cc(F)ccc23)CC1` [iloperidone], the “Avg Time to Relapse or Impending Relapse” value ([1]; 8 mg/d, n=18) was under 30 days, the “Avg Time to Relapse or Impending Relapse” value ([1]; 12 mg/d, n=58) was over 120 days and the “Avg Time to Relapse or Impending Relapse” value ([1]; 20 mg/d, n=14) was over 120 days. The “Average Time to Relapse” value ([1]; Final (FAS)) was 140 days, the Relapse Rate ([1]; Final (FAS) (N = 151)) was 17.9% and the “Hazard Ratio (95% CI)” value ([1]; Final (FAS)) was 5.2. The “Hazard Ratio (95% CI)” value ([1]; Final (FAS), listed as Iloperidone) was 5.2 (3.2, 8.4), the Relapse Rate ([1]; Interim Analysis Population (N = 97)) was 20.4% and the “Hazard Ratio (95% CI)” value ([1]; Interim Analysis Population, Cox regression) was 4.7. The “Hazard Ratio (95% CI)” value ([1]; Interim Analysis Population, Cox regression, listed as Iloperidone) was 4.7 (2.7, 8.3), the “Average Time to Relapse” value ([1]; Interim Analysis Population, KM estimates) was 139 days and the “CGI-I outcome in the majority of patients” value ([1]; Relapse Prevention Phase) was “showed improvement”. The “adjusted mean CGI-I score” value ([1]; Relapse Prevention Phase, LOCF) was 3.3, the “adjusted mean change from randomization baseline at endpoint in PANSS total score” value ([1]; Relapse Prevention Phase, LOCF) was 2.3 points and the “mean improvement on the PANSS total score” value ([1]; during Titration and Stabilization Phase, patients randomized in the IA (N=195)) was −19.5±10.1 points. The “time to relapse compared with placebo (FIG. 2)” value ([1]; interim analysis population, Kaplan-Meier) was “statistically significant longer time to relapse”, the “estimated relapse rate at the end of the double-blind relapse prevention phase (KM est.)” value ([1]; interim analysis, flexible dose 8-24 mg/day) was 20.4% and the “TEAE incidence: Dizziness” value [2, 3] was 4 (2.6) n (%). For the same molecule, the “TEAE incidence: Dry Mouth” value [2, 3] was 0 n (%), the “TEAE incidence: Headache” value [2, 3] was 3 (2.0) n (%) and the “TEAE incidence: Insomnia” value [2, 3] was 3 (2.0) n (%). For the same molecule, the “TEAE incidence: Nausea” value [2, 3] was 2 (1.3) n (%), the “TEAE incidence: Schizophrenia” value [2, 3] was 3 (2.0) n (%) and the “TEAE incidence: Somnolence” value [2, 3] was 2 (1.3) n (%). The “TEAE incidence: Weight increased” value [2, 3] was 2 (1.3) n (%), the “Patients with at least 1 TEAE” value [2, 3] was 60 (39.7) n (%) and the “changes in AIMS scores” value ([2]; Relapse Prevention Phase) was “No clinically meaningful changes”. The “mean change from baseline in QTcF” value ([2]; Relapse Prevention Phase) was 4.9 ms, the “most common SAE: schizophrenia” value ([2]; Relapse Prevention Phase) was 1.3% and the “patients discontinued due to TEAEs” value ([2]; Relapse Prevention Phase) was 6%. The “patients reporting akathisia as TEAE” value ([2]; Relapse Prevention Phase) was 1%, the “patients reporting extrapyramidal disorder as TEAE” value ([2]; Relapse Prevention Phase) was 1% and the “patients who experienced a SAE” value ([2]; Relapse Prevention Phase) was 4%. The “patients who experienced a TEAE” value ([2]; Relapse Prevention Phase) was 40%, the “patients in whom akathisia was absent (BAS)” value ([2]; Relapse Prevention Phase, at completion) was 95% and the “mean change from baseline in weight” value [2, 4] was 0.02 kg. For the same molecule, the “patients with ≥7% increase in weight from baseline” value [2, 4] was 38%, the “waist circumference versus placebo” value [2, 4] was “no notable differences” and the “Primary Reason for Discontinuation: Abnormal Laboratory Value(s)” value ([2]; Relapse Prevention Phase) was 3 (13) n (%). For the same molecule, the “Primary Reason for Discontinuation: Abnormal Test Procedure Result(s)” value ([2]; Relapse Prevention Phase) was 1 (4) n (%), the “Primary Reason for Discontinuation: Adverse Event(s)” value ([2]; Relapse Prevention Phase) was 3 (13) n (%) and the “Primary Reason for Discontinuation: Death” value ([2]; Relapse Prevention Phase) was 1 (4) n (%). For the same molecule, the “changes in Abnormal Involuntary Movement Scale (AIMS) scores” value [2, 5] was “No clinically meaningful changes”, the “discontinuation due to TEAE: QT prolongation” value [2, 5] was 1.1% and the “discontinuation due to TEAE: dizziness” value [2, 5] was 1.4%. For the same molecule, the “discontinuation due to TEAE: schizophrenia” value [2, 5] was 1.9%, the “mean change from baseline in QTcF” value [2, 5] was 6.4 ms and the “most common SAE: schizophrenia” value [2, 5] was 1.4%. For the same molecule, the “patients discontinued due to TEAEs” value [2, 5] was 15%, the “patients reporting akathisia as TEAE” value [2, 5] was 4% and the “patients reporting extrapyramidal disorder as TEAE” value [2, 5] was 3%. For the same molecule, the “patients who experienced a SAE” value [2, 5] was 4%, the “patients who experienced a Treatment-Emergent Adverse Event (TEAE)” value [2, 5] was 69% and the “patients who died while receiving iloperidone” value ([2]; Titration and Stabilization Phase, one patient, alcohol poisoning) was 0.2%. The “TEAE incidence: Dizziness” value [2, 6] was 73 (11.6) n (%), the “TEAE incidence: Dry Mouth” value [2, 6] was 43 (6.8) n (%) and the “TEAE incidence: Headache” value [2, 6] was 40 (6.4) n (%). The “TEAE incidence: Insomnia” value [2, 6] was 35 (5.6) n (%), the “TEAE incidence: Nausea” value [2, 6] was 32 (5.1) n (%) and the “TEAE incidence: Schizophrenia” value [2, 6] was 15 (2.4) n (%). The “TEAE incidence: Somnolence” value [2, 6] was 52 (8.3) n (%), the “TEAE incidence: Weight increased” value [2, 6] was 34 (5.4) n (%) and the “Patients with at least 1 TEAE” value [2, 6] was 433 (68.8) n (%). For the same molecule, the “Primary Reason for Discontinuation: Abnormal Laboratory Value(s)” value ([2]; Titration/Stabilization Phase) was 19 (8) n (%), the “Primary Reason for Discontinuation: Abnormal Test Procedure Result(s)” value ([2]; Titration/Stabilization Phase) was 5 (2) n (%) and the “Primary Reason for Discontinuation: Adverse Event(s)” value ([2]; Titration/Stabilization Phase) was 80 (32) n (%). The “Primary Reason for Discontinuation: Death” value ([2]; Titration/Stabilization Phase) was 1 (<1) n (%), the “mean change from baseline in weight” value [2, 7] was 0.5 kg and the “patients in whom akathisia was absent (Barnes Akathisia Scale)” value [2, 7] was 97%. For the same molecule, the “patients with ≥7% increase in weight from baseline” value [2, 7] was 17%, the “QTcF prolongation in relation to dose/exposure” value ([2]; longer-term trial, higher exposures associated with more QT prolongation) was “dose-dependent” and the “adverse events during maintenance period” value ([2]; patients administered 16 mg/day or less) was “reduction in adverse events”. For the same molecule, the “most common adverse events suspected to be related to iloperidone” value ([2]; stabilization phase) was “dizziness, somnolence and dry mouth”, the “patients with elevations in LDL” value ([2]; versus none on placebo) was 2.6% and the “patients with elevations in blood urea nitrogen (BUN)” value ([2]; versus none on placebo) was 4.5%.
